Laboratory results as given in patent publication US20250313548A1 (Actio Biosciences, Inc., priority 2023, published 2025).

biological target: human, KCNT1 (Homo sapiens (Human), UniProt Q5JUK3); experiment: FLIPR Tl/K Flux Assay; assay type: cell-based; settings: HEK293 cells stably expressing human KCNT1; Tl+ flux stimulated with EC80 of agonist Loxapine
Outline: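 Inhibition values come from a Hill-equation fit of % inhibition versus log concentration, using normalized fluorescence (Fmax/Fmin) over a 160 s read. The read followed stimulation with Tl+ plus EC80 agonist loxapine after 30 min compound pre-incubation at 25 °C. Cells were KCNT1-expressing HEK293, dye-loaded 1 h in pH 7.4 HEPES/HBSS with 5 mM probenecid.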

Sequence of human, KCNT1 (Q5JUK3 whole entry): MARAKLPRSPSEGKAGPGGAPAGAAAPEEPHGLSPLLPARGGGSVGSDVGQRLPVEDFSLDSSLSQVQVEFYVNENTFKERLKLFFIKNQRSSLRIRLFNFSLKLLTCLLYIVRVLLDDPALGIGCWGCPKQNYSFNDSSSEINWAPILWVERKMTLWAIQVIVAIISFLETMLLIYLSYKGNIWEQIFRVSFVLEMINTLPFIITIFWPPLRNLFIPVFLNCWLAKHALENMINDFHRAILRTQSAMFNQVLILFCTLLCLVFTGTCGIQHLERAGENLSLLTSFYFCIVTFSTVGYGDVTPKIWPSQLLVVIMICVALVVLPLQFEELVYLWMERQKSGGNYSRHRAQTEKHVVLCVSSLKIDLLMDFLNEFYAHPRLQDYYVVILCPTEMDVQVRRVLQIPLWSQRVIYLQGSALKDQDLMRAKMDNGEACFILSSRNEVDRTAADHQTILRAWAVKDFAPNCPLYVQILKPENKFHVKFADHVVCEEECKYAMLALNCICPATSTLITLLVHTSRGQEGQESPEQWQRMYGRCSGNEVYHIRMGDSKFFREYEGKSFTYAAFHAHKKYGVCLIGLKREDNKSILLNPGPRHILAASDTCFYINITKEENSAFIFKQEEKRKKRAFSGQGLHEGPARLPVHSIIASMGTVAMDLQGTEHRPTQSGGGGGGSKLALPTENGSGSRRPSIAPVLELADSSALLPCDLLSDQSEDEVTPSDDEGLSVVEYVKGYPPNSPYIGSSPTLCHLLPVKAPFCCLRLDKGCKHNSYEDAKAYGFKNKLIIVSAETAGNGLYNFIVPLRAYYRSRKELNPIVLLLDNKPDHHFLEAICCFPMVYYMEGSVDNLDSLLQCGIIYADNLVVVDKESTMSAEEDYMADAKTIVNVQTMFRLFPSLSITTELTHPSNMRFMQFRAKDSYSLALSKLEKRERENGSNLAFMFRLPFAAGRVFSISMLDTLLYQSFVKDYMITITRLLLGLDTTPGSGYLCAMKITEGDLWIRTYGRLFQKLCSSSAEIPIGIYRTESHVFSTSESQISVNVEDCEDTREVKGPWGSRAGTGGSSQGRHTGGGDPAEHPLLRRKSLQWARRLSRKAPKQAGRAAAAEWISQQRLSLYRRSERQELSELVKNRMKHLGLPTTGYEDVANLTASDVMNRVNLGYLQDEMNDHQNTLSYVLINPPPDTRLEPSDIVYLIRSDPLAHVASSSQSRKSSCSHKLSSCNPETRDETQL

Row | IC50 | Structure (SMILES)
1 | < 250 nM | COc1cc(C(=O)N[C@H]2CCCCn3nc(-c4cc(C(F)(F)F)ncc4F)cc32)ccn1 [Compound I-194a, (S)-N-(2-(5-Fluoro-2-(trifluoromethyl)pyridin-4-yl)-5,6,7,8-tetrahydro-4H-pyrazolo[1,5-a]azepin-4-yl)-2-methoxyisonicotinamide]
2 | < 250 nM | CC(C)(O)c1cc(F)cc(C(=O)N[C@H]2CCCn3nc(-c4ccnc(C(F)(F)F)c4)cc32)c1 [Compound I-581a]
3 | > 1000 nM | COc1cc(C(=O)N[C@H]2CCCc3cnc(-c4ccnc(C(F)(F)F)c4)cc32)ccn1 (single isomer, unassigned) [I-269*]
4 | < 250 nM | Cn1nc(C(F)(F)F)cc1C(=O)N[C@H]1CCCCn2nc(-c3ccnc(C(F)(F)F)c3)cc21 [Compound I-385a]
5 | < 250 nM | Cn1nc(C(F)(F)F)cc1C(=O)N[C@H]1CCCc2sc(-c3ccnc(C(F)(F)F)c3)cc21 [Compound I-79a]
6 | < 250 nM | O=C(N[C@H]1CCCn2nc(-c3ccnc(C(F)(F)F)c3)cc21)c1ccc(F)c(OC(F)(F)F)c1 [Compound I-411a]
7 | 250 to 500 nM | Cc1cccc(C(=O)N[C@H]2CCCc3cnc(-c4ccnc(C(F)(F)F)c4)cc32)c1 [Compound I-394a]
8 | < 250 nM | O=C(N[C@H]1CCn2nc(-c3ccnc(C(F)(F)F)c3)cc21)c1ccnc(OC(F)(F)F)c1 [Compound I-198a, (S)-2-(Trifluoromethoxy)-N-(2-(2-(trifluoromethyl)pyridin-4-yl)-5,6-dihydro-4H-pyrrolo[1,2-b]pyrazol-4-yl)isonicotinamide]
9 | < 250 nM | O=C(N[C@H]1CCc2nn(-c3ccnc(C(F)(F)F)c3)cc21)c1cnc(C(F)(F)F)cn1 [Compound I-564a, (S)-5-(Trifluoromethyl)-N-(2-(2-(trifluoromethyl)pyridin-4-yl)-2,4,5,6-tetrahydrocyclopenta[c]pyrazol-4-yl)pyrazine-2-carboxamide]
10 | > 1000 nM | O=C(N[C@H]1CCc2cnc(-c3ccnc(C(F)(F)F)c3)cc21)c1cncc(C(F)(F)F)n1 [Compound I-197a, (S)-6-(trifluoromethyl)-N-(3-(2-(trifluoromethyl)pyridin-4-yl)-6,7-dihydro-5H-cyclopenta[c]pyridin-5-yl)pyrazine-2-carboxamide]
11 | 500 to 1000 nM | Cn1nc(C(F)(F)F)cc1C(=O)N[C@@H]1CCCCc2nn(-c3ccnc(C4CC4)c3)cc21 [Compound I-56b]
12 | < 250 nM | Cc1cnc(C(F)(F)F)cc1-c1cc2n(n1)CCCC[C@@H]2NC(=O)c1cccc(C#N)c1 [Compound I-280a, (S)-3-Cyano-N-(2-(5-methyl-2-(trifluoromethyl)pyridin-4-yl)-5,6,7,8-tetrahydro-4H-pyrazolo[1,5-a]azepin-4-yl)benzamide]
13 | > 1000 nM | Cn1nc(C(F)(F)F)cc1C(=O)NC1CCCc2nn(-c3cc[nH]c(=O)c3)cc21 (racemic) [Compound I-35, (rac)-1-Methyl-N-(2-(2-oxo-1,2-dihydropyridin-4-yl)-4,5,6,7-tetrahydro-2H-indazol-4-yl)-3-(trifluoromethyl)-1H-pyrazole-5-carboxamide]
14 | > 1000 nM | O=C(N[C@@H]1CCCCc2nn(-c3ccnc(C(F)(F)F)c3)cc21)c1cc(Cl)cc(C(F)(F)F)c1 [Compound I-109b]
15 | < 250 nM | Cc1cnc(C(F)(F)F)cc1-c1cc2n(n1)CCC[C@@H]2NC(=O)c1ccnc(OC(F)(F)F)c1 [Compound I-181a, (S)-N-(2-(5-Methyl-2-(trifluoromethyl)pyridin-4-yl)-4,5,6,7-tetrahydropyrazolo[1,5-a]pyridin-4-yl)-2-(trifluoromethoxy)isonicotinamide]
16 | < 250 nM | COc1cc(F)cc(C(=O)N[C@H]2CCCn3nc(-c4ccnc(C(F)(F)F)c4)cc32)c1 [Compound I-578a, (S)-3-Fluoro-5-methoxy-N-(2-(2-(trifluoromethyl)pyridin-4-yl)-4,5,6,7-tetrahydropyrazolo[1,5-a]pyridin-4-yl)benzamide]
17 | < 250 nM | COc1ccccc1C(=O)N[C@H]1CCc2nn(-c3ccnc(C(F)(F)F)c3)cc21 [Compound I-94a]
18 | < 250 nM | N#Cc1cc(F)cc(C(=O)N[C@H]2CCCc3oc(-c4ccnc(C(F)(F)F)c4)nc32)c1 [Compound I-298a, (S)-3-Cyano-5-fluoro-N-(2-(2-(trifluoromethyl)pyridin-4-yl)-4,5,6,7-tetrahydrobenzo[d]oxazol-4-yl)benzamide]
19 | < 250 nM | COc1cc(F)cc(C(=O)N[C@H]2CCn3nc(-c4ccnc(C(F)(F)F)c4)cc32)c1 [Compound I-567a, (S)-3-Fluoro-5-methoxy-N-(2-(2-(trifluoromethyl)pyridin-4-yl)-5,6-dihydro-4H-pyrrolo[1,2-b]pyrazol-4-yl)benzamide]
20 | > 1000 nM | Cc1cc(Cl)cc(C(=O)N[C@@H]2CCc3nn(-c4ccnc(C(F)(F)F)c4)cc32)c1 [Compound I-98b]
21 | < 250 nM | Cn1nc(C(F)(F)F)cc1C(=O)N[C@H]1CCCCc2nn(-c3ccnc(C(F)(F)F)c3)cc21 [Compound I-45a, (S)-1-methyl-3-(trifluoromethyl)-N-(2-(2-(trifluoromethyl)pyridin-4-yl)-2,4,5,6,7,8-hexahydrocyclohepta[c]pyrazol-4-yl)-1H-pyrazole-5-carboxamide]
22 | < 250 nM | Cn1nc(C(F)(F)F)cc1C(=O)N[C@H]1CCCc2nn(-c3ccnc(C4CC4)c3)cc21 [Compound I-48a]
23 | > 1000 nM | CCOc1cc(-n2cc3c(n2)CCCC[C@H]3NC(=O)c2cccc(C)c2)ccn1 [Compound I-361b]

Further lines, the molecule ahead of its results:

Row | Structure (SMILES) | IC50
24 | COc1cc(-c2cc3n(n2)CC[C@@H]3NC(=O)c2cnn(C(F)(F)F)c2)ccn1 [Compound I-255a, (S)-N-(2-(2-Methoxypyridin-4-yl)-5,6-dihydro-4H-pyrrolo[1,2-b]pyrazol-4-yl)-1-(trifluoromethyl)-1H-pyrazole-4-carboxamide] | < 250 nM
25 | N#Cc1cccc(C(=O)NC2CCCn3cc(-c4ccnc(C(F)(F)F)c4)cc32)c1 (single isomer, unassigned) [I-309*] | < 250 nM
26 | O=C(N[C@H]1CCn2nc(-c3ccnc(C4CC4)c3)cc21)c1ccnc(OC(F)(F)F)c1 [Compound I-543a, (S)-N-(2-(2-Cyclopropylpyridin-4-yl)-5,6-dihydro-4H-pyrrolo[1,2-b]pyrazol-4-yl)-2-(trifluoromethoxy)isonicotinamide] | < 250 nM
27 | COc1cc(-c2nc3c(o2)[C@@H](NC(=O)c2cncc(C(F)(F)F)n2)CCC3)c(Cl)cn1 [Compound I-161a, (S)-N-(2-(5-Chloro-2-methoxypyridin-4-yl)-4,5,6,7-tetrahydrobenzo[d]oxazol-7-yl)-6-(trifluoromethyl)pyrazine-2-carboxamide] | 250 to 500 nM
28 | Cn1nc(C(F)(F)F)cc1C(=O)N[C@H]1CCCn2nc(-c3ccnc(C(C)(C)O)c3)cc21 [Compound I-444a] | 500 to 1000 nM
29 | Cc1nn(C)c(C(=O)N[C@H]2CCCn3nc(-c4ccnc(C(F)(F)F)c4)cc32)c1F [Compound I-417a] | < 250 nM
30 | COc1cc(-c2nc3c(o2)CCC[C@@H]3NC(=O)c2cccc(C(F)(F)F)c2)ccn1 [Compound I-249a, (S)-N-(2-(2-Methoxypyridin-4-yl)-4,5,6,7-tetrahydrobenzo[d]oxazol-4-yl)-3-(trifluoromethyl)benzamide] | < 250 nM
31 | Cc1cc(-c2cc3n(n2)CCC[C@@H]3NC(=O)c2cc(C(F)(F)F)nn2C)cc(C2CC2)n1 [Compound I-315a, (S)-N-(2-(2-Cyclopropyl-6-methylpyridin-4-yl)-4,5,6,7-tetrahydropyrazolo[1,5-a]pyridin-4-yl)-1-methyl-3-(trifluoromethyl)-1H-pyrazole-5-carboxamide] | < 250 nM
32 | N#Cc1cc(F)cc(C(=O)N[C@H]2CCn3nc(-c4ccnc(C5CC5)c4)cc32)c1 [Compound I-300a, (S)-3-Cyano-N-(2-(2-cyclopropylpyridin-4-yl)-5,6-dihydro-4H-pyrrolo[1,2-b]pyrazol-4-yl)-5-fluorobenzamide] | < 250 nM
33 | Cn1nc(C2CC2)cc1C(=O)N[C@H]1CCCn2nc(-c3ccnc(C(F)(F)F)c3)cc21 [Compound I-347a] | < 250 nM
34 | O=C(N[C@H]1CCn2nc(-c3ccnc(C4CC4)c3)cc21)c1cc2cccnn2c1 [Compound I-279a, (S)-N-(2-(2-Cyclopropylpyridin-4-yl)-5,6-dihydro-4H-pyrrolo[1,2-b]pyrazol-4-yl)pyrrolo[1,2-b]pyridazine-6-carboxamide] | < 250 nM
35 | N#Cc1cccc(C(=O)N[C@H]2CCn3nc(-c4ccnc(C(F)(F)F)c4)cc32)c1 [Compound I-342a, (S)-3-Cyano-N-(2-(2-(trifluoromethyl)pyridin-4-yl)-5,6-dihydro-4H-pyrrolo[1,2-b]pyrazol-4-yl)benzamide] | < 250 nM
36 | COc1cc(-c2nc3c(o2)CCC[C@@H]3NC(=O)c2cc3cccnn3c2)ccn1 [Compound I-293a, (S)-N-(2-(2-Methoxypyridin-4-yl)-4,5,6,7-tetrahydrobenzo[d]oxazol-4-yl)pyrrolo[1,2-b]pyridazine-6-carboxamide] | 250 to 500 nM
37 | CCOc1cc(F)cc(C(=O)N[C@H]2CCn3nc(-c4cc(OC)ncc4F)cc32)c1 [Compound I-574a, (S)-3-Ethoxy-5-fluoro-N-(2-(5-fluoro-2-methoxypyridin-4-yl)-5,6-dihydro-4H-pyrrolo[1,2-b]pyrazol-4-yl)benzamide] | < 250 nM
38 | O=C(N[C@H]1CCCc2nc(-c3ccnc(C4CC4)c3)oc21)c1cncc(C(F)(F)F)n1 [Compound I-152a, (S)-N-(2-(2-Cyclopropylpyridin-4-yl)-4,5,6,7-tetrahydrobenzo[d]oxazol-7-yl)-6-(trifluoromethyl)pyrazine-2-carboxamide] | < 250 nM
39 | N#Cc1cncc(C(=O)N[C@H]2CCCn3nc(-c4ccnc(C(F)(F)F)c4)cc32)n1 [Compound I-321a, (S)-6-Cyano-N-(2-(2-(trifluoromethyl)pyridin-4-yl)-4,5,6,7-tetrahydropyrazolo[1,5-a]pyridin-4-yl)pyrazine-2-carboxamide] | < 250 nM
40 | Cc1cn(C)nc1C(=O)N[C@H]1CCCn2nc(-c3ccnc(C(F)(F)F)c3)cc21 [Compound I-416a] | 250 to 500 nM
